Test [1] has as its target T1, catalytic domain of human stromelysine (Homo sapiens, UniProt P08254).
T1 construct: enzymatic activity of the catalytic domains of human stomelysine and of neutrophil collagenase; made in house
As to the kind of experiment: Enzyme inhibition, catalytic domain of human stromelysine (fluorogenic substrate). The test is classed as biochemical. The following applies: read-out: Stromelysine IC 50. As to the method:
(§1) Preparation and determination of the enzymatic activity of the catalytic domains of human stomelysine and of neutrophil collagenase.
(§2) The two enzymes were prepared according to Ye et al., (Biochemistry 31 (1992) 11231-5). To measure the enzyme activity or enzyme inhibitor action, 70 μl of buffer solution and 10 μl of enzyme solution are incubated for 15 minutes with 10 μl of a 10% strength (v/v) aqueous dimethyl sulfoxide solution, which optionally contains the enzyme inhibitor. After addition of 10 μl of a 10% strength (v/v) aqueous dimethyl sulfoxide solution which contains 1 mmol/l of the substrate, the enzyme reaction is monitored by fluorescence spectroscopy (328 nm (ex)/393 nm(em)). The enzyme activity is shown as extinction increase/minute. […] The buffer solution contains 0.05% of Brij (Sigma, Deisenhofen, Germany) and also 0.1 mol/l of tris/HCl, 0.1 mol/l of NaCl, 0.01 mol/l of CaCl2 (pH=7.5) for the determination of the hydroxamic acids up to and including Example 33, or, for the determination of the carboxylic acids from Example 34, 0.1 mol/l of piperazine-N,N′-bis[2-ethanesulfonic acid] pH=6.5.
(§3) The enzyme solution contains 5 μg/ml of one of the enzyme domains prepared according to Ye et al. The substrate solution contains 1 mmol/l of the fluorogenic substrate (7-methoxycoumarin-4-yl)acetyl-Pro-Leu-Gly-Leu-3-(2′,4′-dinitrophenyl)-L-2,3-diaminopropionyl-Ala-Arg-NH2 (Bachem, Heidelberg, Germany).

Test [2] addresses T2, catalytic domain of neutrophil collagenase (Homo sapiens, UniProt P22894).
T2 construct: enzymatic activity of the catalytic domains of human stomelysine and of neutrophil collagenase; made in house
Briefly: Enzyme inhibition, catalytic domain of neutrophil collagenase (fluorogenic substrate). The test is classed as biochemical. The following applies: read-out: Neutrophil collagenase IC 50. The protocol:
as §1, §2, §3

The mark [3] stands for this setting: hydroxamic acids up to and including Example 33, tris/HCl buffer pH=7.5.
The mark [4] stands for this setting: carboxylic acids from Example 34, piperazine-N,N'-bis[2-ethanesulfonic acid] buffer pH=6.5.

Where two headings read alike, the source gives them in different places.

T1 sequence (P08254 100-272 limits assumed): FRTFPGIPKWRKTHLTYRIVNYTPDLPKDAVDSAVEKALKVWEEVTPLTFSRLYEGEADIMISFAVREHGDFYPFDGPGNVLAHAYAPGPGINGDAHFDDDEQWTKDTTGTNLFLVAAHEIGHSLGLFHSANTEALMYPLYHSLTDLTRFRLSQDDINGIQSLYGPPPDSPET
T2 sequence (P22894 100-262 limits assumed): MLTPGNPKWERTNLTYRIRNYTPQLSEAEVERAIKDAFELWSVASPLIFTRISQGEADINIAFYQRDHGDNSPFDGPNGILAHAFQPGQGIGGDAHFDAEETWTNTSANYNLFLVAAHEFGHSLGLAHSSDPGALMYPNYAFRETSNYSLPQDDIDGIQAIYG

As for `COc1ccc(S(=O)(=O)N2Cc3c(cc(OC)c(OC)c3OC)CC2C(=O)NO)cc1` (stereo not shown) [Example 25, 2-(4-Methoxybenzenesulfonyl)-6,7,8-trimethoxy-1,2,3,4-tetrahydroisoquinoline-3-hydroxamic acid], the IC50 is 0.4 µM in test [1] (setting [3]) and 0.3 µM in test [2] (setting [3]).
For `O=C(NO)[C@H]1Cc2ccccc2CN1S(=O)(=O)c1ccc2oc3ccccc3c2c1` [Example 15], the IC50 came to 0.1 µM in test [1] (setting [3]) and 0.01 µM in test [2] (setting [3]).
For the molecule `O=C(c1ccccc1)c1ccc(S(=O)(=O)N2Cc3ccccc3C[C@@H]2C(=O)O)cc1` [Example 45], the IC50 in test [1] (setting [4]) is 3 µM; in test [2] (setting [4]), 0.3 µM.
As for `O=C(O)[C@H]1Cc2ccccc2CN1S(=O)(=O)c1ccc(OCc2ccc(F)cc2)cc1` [Example 44], the IC50 in test [1] (setting [4]) turned out to be 0.2 µM; in test [2] (setting [4]), 0.03 µM.
For the molecule `CN(C)c1cccc2c(S(=O)(=O)N3Cc4ccccc4C[C@@H]3C(=O)NO)cccc12` [Example 12], the IC50 was determined as 0.4 µM in test [1] (setting [3]) and 0.2 µM in test [2] (setting [3]).
Regarding `COc1ccc(S(=O)(=O)N2Cc3cc([N+](=O)[O-])ccc3CC2C(=O)NO)cc1` (stereo not shown) [Example 23], the IC50 in test [1] (setting [3]) came to 0.08 µM; in test [2] (setting [3]), 0.008 µM.
`O=C(O)[C@H]1Cc2cc([N+](=O)[O-])ccc2CN1S(=O)(=O)c1ccc(-c2ccc(Cl)cc2)cc1` [Example 51]: the figures for the IC50 in test [1] (setting [4]) and in test [2] (setting [4]) were 0.5 µM and 0.02 µM, respectively.
Consider `O=C(NO)C1Cc2ccccc2CN1S(=O)(=O)N1CCOCC1` (stereo not shown) [Example 26, 2-(Morpholinosulfonyl)-1,2,3,4-tetrahydroisoquinoline-3-hydroxamic acid], for which the IC50 in test [1] (setting [3]) was determined as 6 µM; in test [2] (setting [3]) it was 0.3 µM.
Consider `CCOC(=O)Nc1ccc(S(=O)(=O)N2Cc3ccccc3CC2C(=O)NO)cc1` (stereo not shown) [Example 6], for which the IC50 in test [1] (setting [3]) came to 0.5 µM; in test [2] (setting [3]), 0.03 µM.
`COc1ccc(S(=O)(=O)N2CCc3cc4c(cc3C2C(=O)NO)CCC4)cc1` (stereo not shown) [Example 27]: the IC50 was 0.03 µM in test [1] (setting [3]) and 0.004 µM in test [2] (setting [3]).
For the molecule `O=C(NO)[C@H]1Cc2ccccc2CN1S(=O)(=O)c1ccc(-c2ccc(Cl)cc2)cc1` [Example 3], the IC50 in test [1] (setting [3]) was 0.03 µM; in test [2] (setting [3]), 0.002 µM.
Take `O=C(NO)[C@H]1Cc2ccccc2CN1S(=O)(=O)C1=CC2=CC=CCC2C=C1` (stereo partly shown) [Example 11]: the IC50 worked out at 0.4 µM in test [1] (setting [3]) and 0.07 µM in test [2] (setting [3]).
`COc1ccc(S(=O)(=O)Oc2ccc3c(c2)CN(S(=O)(=O)c2ccc(OC)cc2)[C@@H](C(=O)NO)C3)cc1` [Example 22]: the IC50 was determined as 0.03 µM in test [1] (setting [3]) and 0.008 µM in test [2] (setting [3]).
Regarding `COc1ccc(S(=O)(=O)N2Cc3[nH]c4ccccc4c3C[C@@H]2C(=O)NO)cc1` [Example 31, R-2-(4-methoxybenzenesulfonyl)-1,2,3,4-tetrahydro-9H-pyrido-(3,4-b)-indole-3-hydroxamic acid], the values for the IC50 in test [1] (setting [3]) and in test [2] (setting [3]) were 0.02 µM and 0.003 µM, respectively.
Take `O=C(O)[C@H]1Cc2ccccc2CN1S(=O)(=O)c1ccc(Sc2ccccc2)cc1` [Example 43]: the IC50 in test [1] (setting [4]) came to 20 µM; in test [2] (setting [4]), 0.2 µM.
With `CC(=O)Nc1ccc(S(=O)(=O)N2Cc3ccccc3CC2C(=O)NO)cc1` (stereo not shown) [Example 4], the figures for the IC50 in test [1] (setting [3]) and in test [2] (setting [3]) were 0.7 µM and 0.1 µM, respectively.
With `COc1ccc(CC(=O)Nc2cccc(S(=O)(=O)N3Cc4ccccc4CC3C(=O)NO)c2)cc1` (stereo not shown) [Example 8], the IC50 in test [1] (setting [3]) was 3 µM; in test [2] (setting [3]), 0.2 µM.
Take `CCOC(=O)Nc1cccc(S(=O)(=O)N2Cc3ccccc3CC2C(=O)NO)c1` (stereo not shown) [Example 5]: the IC50 in test [1] (setting [3]) was determined as 6 µM.
Take `O=C(NO)C1Cc2ccccc2CN1S(=O)(=O)c1ccccc1` (stereo not shown) [Example 1]: the IC50 in test [1] (setting [3]) came out at 0.3 µM.
Turning to `O=C(O)[C@@H]1Cc2ccccc2CN1S(=O)(=O)c1ccc(-c2ccc(Cl)cc2)cc1` [Example 36], the IC50 in test [2] (setting [4]) was 3 µM.
With `O=C(NO)C1Cc2ccccc2CN1S(=O)(=O)CCc1ccccc1` (stereo not shown) [Example 17], the IC50 in test [1] (setting [3]) worked out at 0.1 µM.
As for `O=C(NO)C1Cc2ccccc2CN1S(=O)(=O)c1ccc(C(O)c2ccccc2)cc1` (stereo not shown) [Example 19], the IC50 in test [1] (setting [3]) was determined as 2 µM; in test [2] (setting [3]), 0.3 µM.

(Values after patent US6815440B2, “Cyclic and heterocyclic N-substituted α-iminohydroxamic and -carboxylic acids” (Aventis Pharma Deutschland GmbH, priority 1995, dated 2004).)
